Laboratory results published in ChEMBL document CHEMBL1201861, “Genomics of Drug Sensitity in Cancer screening data, Wellcome Trust Sanger Institute”.

Columns and labels:
Assay in all cases: cells
H4 = type: functional, cell-based, Homo sapiens
Description: SANGER: Inhibition of human H4 cell growth in a cell viability assay.

HuP-T4 = type: functional, cell-based, Homo sapiens;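 note: cell viability assay measuring how much HuP-T4 cell growth is inhibited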
Description: SANGER: Inhibition of human HuP-T4 cell growth in a cell viability assay.

DOK = type: functional, cell-based, Homo sapiens;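 note: cell viability assay read-out, values reflect inhibition of cell growth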
Description: SANGER: Inhibition of human DOK cell growth in a cell viability assay.

SNU-387 = type: functional, cell-based, Homo sapiens
Description: SANGER: Inhibition of human SNU-387 cell growth in a cell viability assay.

HuO-3N1 = type: functional, cell-based, Homo sapiens;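 note: cell viability readout used to measure how strongly compounds suppress proliferation of human HuO-3N1 cells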
Description: SANGER: Inhibition of human HuO-3N1 cell growth in a cell viability assay.

MDA-MB-361 = type: functional, cell-based, Homo sapiens
BCPAP = type: functional, cell-based, Homo sapiens;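 note: growth inhibition of BCPAP cells, read out in a cell viability assay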
Description: SANGER: Inhibition of human BCPAP cell growth in a cell viability assay.

SK-HEP1 = type: functional, cell-based, Homo sapiens, SK-HEP-1;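 note: cell viability readout used to quantify reduction in proliferation of human SK-HEP-1 cells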
Description: SANGER: Inhibition of human SK-HEP-1 cell growth in a cell viability assay.

TCC-SUP = type: functional, cell-based, Homo sapiens;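 note: growth inhibition of TCC-SUP cells, read out with a cell viability assay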
Description: SANGER: Inhibition of human TCCSUP cell growth in a cell viability assay.

SK-MM-2 = type: functional, cell-based, Homo sapiens;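 note: growth inhibition of human SK-MM-2 cells, read out with a cell viability assay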
Description: SANGER: Inhibition of human SK-MM-2 cell growth in a cell viability assay.

MONO-MAC-6 = type: functional, cell-based, Homo sapiens;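 note: cell viability assay measuring growth inhibition of human MONO-MAC-6 cells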
Description: SANGER: Inhibition of human MONO-MAC-6 cell growth in a cell viability assay.

MKN-45 = type: functional, cell-based, Homo sapiens;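 note: growth inhibition of human MKN-45 cells, measured with a cell viability assay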
Description: SANGER: Inhibition of human MKN45 cell growth in a cell viability assay.

SK-MEL-24 = type: functional, cell-based, Homo sapiens;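 note: growth inhibition read out by a cell viability assay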
Description: SANGER: Inhibition of human SK-MEL-24 cell growth in a cell viability assay.

LC4-1 = type: functional, cell-based, Homo sapiens;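 note: growth inhibition of LC4-1 cells, read out with a cell viability assay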
Description: SANGER: Inhibition of human LC4-1 cell growth in a cell viability assay.

COR-L23 = type: functional, cell-based, Homo sapiens;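 note: cell viability assay measuring how strongly compounds suppress growth of COR-L23 cells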
Description: SANGER: Inhibition of human COR-L23 cell growth in a cell viability assay.

UACC-893 = type: functional, cell-based, Homo sapiens
Description: SANGER: Inhibition of human UACC-893 cell growth in a cell viability assay.

Capan-2 = type: functional, cell-based, Homo sapiens;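 note: Capan-2 cell growth inhibition, read out with a viability assay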
Description: SANGER: Inhibition of human Capan-2 cell growth in a cell viability assay.

SK-OV-3 = type: functional, cell-based, Homo sapiens;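 note: growth inhibition of SK-OV-3 human cells, read out with a cell viability assay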
Description: SANGER: Inhibition of human SK-OV-3 cell growth in a cell viability assay.

NCI-H1563 = type: functional, cell-based, Homo sapiens;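 note: growth inhibition of human NCI-H1563 cells, read out with a cell viability assay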
Description: SANGER: Inhibition of human NCI-H1563 cell growth in a cell viability assay.

HMV-2 cell line = type: functional, cell-based, Homo sapiens;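 note: growth inhibition of HMV-II cells, read out with a cell viability assay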
Description: SANGER: Inhibition of human HMV-II cell growth in a cell viability assay.

LOUCY = type: functional, cell-based, Homo sapiens;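 note: growth inhibition of human LOUCY cells, read out with a cell viability assay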
Description: SANGER: Inhibition of human LOUCY cell growth in a cell viability assay.

HSC-2 = type: functional, cell-based, Homo sapiens;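 note: growth inhibition of human HSC-2 cells, read out by a cell viability assay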
Description: SANGER: Inhibition of human HSC-2 cell growth in a cell viability assay.

NCI-H2228 = type: functional, cell-based, Homo sapiens;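 note: growth inhibition of human NCI-H2228 cells, read out by a cell viability assay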
Description: SANGER: Inhibition of human NCI-H2228 cell growth in a cell viability assay.

C32 = type: functional, cell-based, Homo sapiens;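 note: cell viability assay, with IC50 reflecting inhibition of C32 cell growth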
Description: SANGER: Inhibition of human C32 cell growth in a cell viability assay.

SIMA = type: functional, cell-based, Homo sapiens;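 note: growth inhibition of SIMA cells, measured with a cell viability readout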
Description: SANGER: Inhibition of human SIMA cell growth in a cell viability assay.

NALM-6 = type: functional, cell-based, Homo sapiens;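 note: growth inhibition of NALM-6 cells, read out with a cell viability assay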
Description: SANGER: Inhibition of human NALM-6 cell growth in a cell viability assay.

J82 = type: functional, cell-based, Homo sapiens;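 note: growth inhibition of J82 cells, read out with a cell viability assay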
Description: SANGER: Inhibition of human J82 cell growth in a cell viability assay.

VMRC-RCZ = type: functional, cell-based, Homo sapiens;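 note: growth inhibition measured with a cell viability assay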
Description: SANGER: Inhibition of human VMRC-RCZ cell growth in a cell viability assay.

MCF7 = type: functional, cell-based, Homo sapiens;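 note: growth inhibition of human MCF7 cells, read out with a cell viability assay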
Description: SANGER: Inhibition of human MCF7 cell growth in a cell viability assay.

SW1417 = type: functional, cell-based, Homo sapiens;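 note: growth inhibition of human SW1417 cells, read out with a cell viability assay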
Description: SANGER: Inhibition of human SW1417 cell growth in a cell viability assay.

RT-112 = type: functional, cell-based, Homo sapiens
Description: SANGER: Inhibition of human RT-112 cell growth in a cell viability assay.

CAL-62 = type: functional, cell-based, Homo sapiens;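 note: growth inhibition of CAL-62 cells, read out with a cell viability assay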
Description: SANGER: Inhibition of human CAL-62 cell growth in a cell viability assay.

MEL-HO = type: functional, cell-based, Homo sapiens
Description: SANGER: Inhibition of human MEL-HO cell growth in a cell viability assay.

ACHN = type: functional, cell-based, Homo sapiens;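 note: cell viability read-out used to gauge how strongly growth of human ACHN cells is suppressed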
Description: SANGER: Inhibition of human ACHN cell growth in a cell viability assay.

CAL-148 = type: functional, cell-based, Homo sapiens
Description: SANGER: Inhibition of human CAL-148 cell growth in a cell viability assay.

NCI-H1703 = type: functional, cell-based, Homo sapiens;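 note: growth inhibition of NCI-H1703 cells, read out via a cell viability assay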
Description: SANGER: Inhibition of human NCI-H1703 cell growth in a cell viability assay.

8505C = type: functional, cell-based, Homo sapiens
Description: SANGER: Inhibition of human 8505C cell growth in a cell viability assay.

HCC1569 = type: functional, cell-based, Homo sapiens;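 note: growth inhibition of human HCC1569 cells, read out with a cell viability assay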
Description: SANGER: Inhibition of human HCC1569 cell growth in a cell viability assay.

NUGC-3 = type: functional, cell-based, Homo sapiens;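 note: growth inhibition of human NUGC-3 cells, read out with a cell viability assay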
Description: SANGER: Inhibition of human NUGC-3 cell growth in a cell viability assay.

SK-MEL3 = type: functional, cell-based, Homo sapiens, SK-MEL-3;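 note: growth inhibition of human SK-MEL-3 cells, read out with a cell viability assay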
Description: SANGER: Inhibition of human SK-MEL-3 cell growth in a cell viability assay.

TALL-1 = type: functional, cell-based, Homo sapiens;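 note: growth inhibition of cultured human TALL-1 cells, read out by a cell viability assay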
Description: SANGER: Inhibition of human TALL-1 cell growth in a cell viability assay.

HT-1080 = type: functional, cell-based, Homo sapiens
Description: SANGER: Inhibition of human HT-1080 cell growth in a cell viability assay.

Ca-Ski = type: functional, cell-based, Homo sapiens;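 note: cell viability assay measuring inhibition of Ca-Ski cell growth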
Description: SANGER: Inhibition of human Ca-Ski cell growth in a cell viability assay.

A2058 = type: functional, cell-based, Homo sapiens;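 note: reduction of A2058 cell growth, read out with a viability assay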
Description: SANGER: Inhibition of human A2058 cell growth in a cell viability assay.

RERF-LC-MS = type: functional, cell-based, Homo sapiens;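 note: growth inhibition of human RERF-LC-MS cells, read out by a cell viability assay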
Description: SANGER: Inhibition of human RERF-LC-MS cell growth in a cell viability assay.

KYSE-180 = type: functional, cell-based, Homo sapiens;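 note: growth inhibition of KYSE-180 cells, read out with a cell viability assay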
Description: SANGER: Inhibition of human KYSE-180 cell growth in a cell viability assay.

CCC/C=C/C=C/C(=O)O[C@H]1/C(=C/C(=O)OC)C[C@H]2C[C@H]([C@@H](C)O)OC(=O)C[C@H](O)C[C@@H]3C[C@H](OC(C)=O)C(C)(C)[C@](O)(C[C@@H]4C/C(=C/C(=O)OC)C[C@H](/C=C/C(C)(C)[C@]1(O)O2)O4)O3 [BRYOSTATIN 1]
IC50 (H4; Homo sapiens, H4): > 0.008 µM | IC50 (HuP-T4; Homo sapiens, HuP-T4): > 0.008 µM | IC50 (DOK; Homo sapiens, DOK): > 0.008 µM | IC50 (SNU-387; Homo sapiens, SNU-387): > 0.008 µM | IC50 (HuO-3N1; Homo sapiens, HuO-3N1): > 0.008 µM | IC50 (MDA-MB-361; Homo sapiens, MDA-MB-361): > 0.008 µM | IC50 (BCPAP; Homo sapiens, BCPAP): > 0.008 µM | IC50 (SK-HEP1; Homo sapiens, SK-HEP1): > 0.008 µM | IC50 (TCC-SUP; Homo sapiens, TCC-SUP): > 0.008 µM | IC50 (SK-MM-2; Homo sapiens, SK-MM-2): > 0.008 µM | IC50 (MONO-MAC-6; Homo sapiens, MONO-MAC-6): > 0.008 µM | IC50 (MKN-45; Homo sapiens, MKN-45): > 0.008 µM | IC50 (SK-MEL-24; Homo sapiens, SK-MEL-24): > 0.008 µM | IC50 (LC4-1; Homo sapiens, LC4-1): > 0.008 µM | IC50 (COR-L23; Homo sapiens, COR-L23): > 0.008 µM | IC50 (UACC-893; Homo sapiens, UACC-893): > 0.008 µM | IC50 (Capan-2; Homo sapiens, Capan-2): > 0.008 µM | IC50 (SK-OV-3; Homo sapiens, SK-OV-3): > 0.008 µM | IC50 (NCI-H1563; Homo sapiens, NCI-H1563): > 0.008 µM | IC50 (HMV-2 cell line; Homo sapiens, HMV-2): 0.00226 µM | IC50 (LOUCY; Homo sapiens, LOUCY): > 0.008 µM | IC50 (HSC-2; Homo sapiens, HSC-2): > 0.008 µM | IC50 (NCI-H2228; Homo sapiens, NCI-H2228): > 0.008 µM | IC50 (C32; Homo sapiens, C32): > 0.008 µM | IC50 (SIMA; Homo sapiens, SIMA): > 0.008 µM | IC50 (NALM-6; Homo sapiens, NALM-6): > 0.008 µM | IC50 (J82; Homo sapiens, J82): > 0.008 µM | IC50 (VMRC-RCZ; Homo sapiens, VMRC-RCZ): > 0.008 µM | IC50 (MCF7; Homo sapiens, MCF7): > 0.008 µM | IC50 (SW1417; Homo sapiens, SW1417): > 0.008 µM | IC50 (RT-112; Homo sapiens, RT-112): > 0.008 µM | IC50 (CAL-62; Homo sapiens, CAL-62): > 0.008 µM | IC50 (MEL-HO; Homo sapiens, MEL-HO): > 0.008 µM | IC50 (ACHN; Homo sapiens, ACHN): > 0.008 µM | IC50 (CAL-148; Homo sapiens, CAL-148): > 0.008 µM | IC50 (NCI-H1703; Homo sapiens, NCI-H1703): > 0.008 µM | IC50 (8505C; Homo sapiens, 8505C): > 0.008 µM | IC50 (HCC1569; Homo sapiens, HCC1569): > 0.008 µM | IC50 (NUGC-3; Homo sapiens, NUGC-3): > 0.008 µM | IC50 (SK-MEL3; Homo sapiens, SK-MEL3): > 0.008 µM | IC50 (TALL-1; Homo sapiens, TALL-1): > 0.008 µM | IC50 (HT-1080; Homo sapiens, HT-1080): > 0.008 µM | IC50 (Ca-Ski; Homo sapiens, Ca-Ski): > 0.008 µM | IC50 (A2058; Homo sapiens, A2058): > 0.008 µM | IC50 (RERF-LC-MS; Homo sapiens, RERF-LC-MS): > 0.008 µM | IC50 (KYSE-180; Homo sapiens, KYSE-180): > 0.008 µM

Cc1cc([N+](=O)[O-])ccc1NS(=O)(=O)c1cc(Cl)ccc1Cl
IC50 (H4; Homo sapiens, H4): 2.59 µM | IC50 (HuP-T4; Homo sapiens, HuP-T4): 1.68 µM | IC50 (DOK; Homo sapiens, DOK): > 32 µM | IC50 (SNU-387; Homo sapiens, SNU-387): 7.66 µM | IC50 (HuO-3N1; Homo sapiens, HuO-3N1): 13.4 µM | IC50 (MDA-MB-361; Homo sapiens, MDA-MB-361): 3.66 µM | IC50 (BCPAP; Homo sapiens, BCPAP): 2.05 µM | IC50 (SK-HEP1; Homo sapiens, SK-HEP1): 2.88 µM | IC50 (TCC-SUP; Homo sapiens, TCC-SUP): 4.81 µM | IC50 (SK-MM-2; Homo sapiens, SK-MM-2): > 32 µM | IC50 (MONO-MAC-6; Homo sapiens, MONO-MAC-6): 6.18 µM | IC50 (MKN-45; Homo sapiens, MKN-45): 2.15 µM | IC50 (SK-MEL-24; Homo sapiens, SK-MEL-24): 6.27 µM | IC50 (LC4-1; Homo sapiens, LC4-1): 13.7 µM | IC50 (COR-L23; Homo sapiens, COR-L23): 2.63 µM | IC50 (UACC-893; Homo sapiens, UACC-893): 3.06 µM | IC50 (Capan-2; Homo sapiens, Capan-2): 8.17 µM | IC50 (SK-OV-3; Homo sapiens, SK-OV-3): 9.13 µM | IC50 (NCI-H1563; Homo sapiens, NCI-H1563): 9.47 µM | IC50 (HMV-2 cell line; Homo sapiens, HMV-2): 1.54 µM | IC50 (LOUCY; Homo sapiens, LOUCY): 20 µM | IC50 (HSC-2; Homo sapiens, HSC-2): 4.56 µM | IC50 (NCI-H2228; Homo sapiens, NCI-H2228): 17 µM | IC50 (C32; Homo sapiens, C32): < 0.125 µM | IC50 (SIMA; Homo sapiens, SIMA): 13.8 µM | IC50 (NALM-6; Homo sapiens, NALM-6): 6.28 µM | IC50 (J82; Homo sapiens, J82): 2.62 µM | IC50 (VMRC-RCZ; Homo sapiens, VMRC-RCZ): 6.97 µM | IC50 (MCF7; Homo sapiens, MCF7): 2.64 µM | IC50 (SW1417; Homo sapiens, SW1417): 11.4 µM | IC50 (RT-112; Homo sapiens, RT-112): 6.11 µM | IC50 (CAL-62; Homo sapiens, CAL-62): 2.65 µM | IC50 (MEL-HO; Homo sapiens, MEL-HO): 6.53 µM | IC50 (ACHN; Homo sapiens, ACHN): 4.6 µM | IC50 (CAL-148; Homo sapiens, CAL-148): 13.7 µM | IC50 (NCI-H1703; Homo sapiens, NCI-H1703): 3.29 µM | IC50 (8505C; Homo sapiens, 8505C): 2.67 µM | IC50 (HCC1569; Homo sapiens, HCC1569): 3.48 µM | IC50 (NUGC-3; Homo sapiens, NUGC-3): 3.65 µM | IC50 (SK-MEL3; Homo sapiens, SK-MEL3): 4.68 µM | IC50 (TALL-1; Homo sapiens, TALL-1): 6.23 µM | IC50 (HT-1080; Homo sapiens, HT-1080): 0.675 µM | IC50 (Ca-Ski; Homo sapiens, Ca-Ski): 12.1 µM | IC50 (A2058; Homo sapiens, A2058): 2.03 µM | IC50 (RERF-LC-MS; Homo sapiens, RERF-LC-MS): 1.49 µM | IC50 (KYSE-180; Homo sapiens, KYSE-180): 3.13 µM

BLEOMYCIN
IC50 (H4; h4): 0.321 µM | IC50 (HuP-T4; hup-t4): 1.31 µM | IC50 (DOK; dok): 322 µM | IC50 (SNU-387; snu-387): 0.925 µM | IC50 (HuO-3N1; huo-3n1): 87.8 µM | IC50 (MDA-MB-361; mda-mb-361): 0.719 µM | IC50 (BCPAP; bcpap): 1.44 µM | IC50 (SK-HEP1; sk-hep-1): 0.415 µM | IC50 (TCC-SUP; tcc-sup): 15.9 µM | IC50 (SK-MM-2; sk-mm-2): 23.2 µM | IC50 (MONO-MAC-6; mono-mac-6): 4.59 µM | IC50 (MKN-45; mkn-45): 0.0248 µM | IC50 (SK-MEL-24; sk-mel-24): 23.3 µM | IC50 (LC4-1; lc4-1): 11.2 µM | IC50 (COR-L23; cor-l23): 0.0755 µM | IC50 (UACC-893; uacc-893): 130 µM | IC50 (Capan-2; capan-2): 24.2 µM | IC50 (SK-OV-3; sk-ov-3): 4.88 µM | IC50 (NCI-H1563; nci-h1563): 20.6 µM | IC50 (HMV-2 cell line; hmv-2): 0.0697 µM | IC50 (LOUCY; loucy): 0.00993 µM | IC50 (HSC-2; hsc-2): 2.47 µM | IC50 (NCI-H2228; nci-h2228): 0.955 µM | IC50 (C32; c32): 471 µM | IC50 (SIMA; sima): 6.93 µM | IC50 (NALM-6; nalm-6): 0.42 µM | IC50 (J82; j82): 0.774 µM | IC50 (VMRC-RCZ; vmrc-rcz): 2.69 µM | IC50 (MCF7; mcf7): 1.17 µM | IC50 (SW1417; sw1417): 249 µM | IC50 (RT-112; rt-112): 2.32 µM | IC50 (CAL-62; cal-62): 3.34 µM | IC50 (MEL-HO; mel-ho): 0.85 µM | IC50 (ACHN; achn): 0.375 µM | IC50 (CAL-148; cal-148): 4.6 µM | IC50 (NCI-H1703; nci-h1703): 0.0161 µM | IC50 (8505C; 8505c): 1.04 µM | IC50 (HCC1569; hcc1569): 0.604 µM | IC50 (NUGC-3; nugc-3): 1.13 µM | IC50 (SK-MEL3; sk-mel-3): 22.2 µM | IC50 (TALL-1; tall-1): 244 µM | IC50 (HT-1080; ht-1080): 0.234 µM | IC50 (Ca-Ski; ca-ski): 0.798 µM | IC50 (A2058; a2058): 0.808 µM | IC50 (RERF-LC-MS; rerf-lc-ms): 48.7 µM | IC50 (KYSE-180; kyse-180): 3.8 µM
